Experimental data taken from patent US12358893B2, “Metalloenzyme inhibitor compounds” (Corxel Pharmaceuticals Hong Kong Limited, priority 2019, dated 2025).

How the values were obtained:
[1] = target: T1, recombinant human CYP11B2 (Homo sapiens, UniProt P19099); test: CYP11B2 enzyme assay with enzyme enriched microsomes, aldosterone measured by LC-MS; assay type: biochemical; settings: microsomes from V79-4 cells; 11-deoxycorticosterone at Km; read-out: hCYP11B2 IC50
T1 construct: made in house; host or cells: V79-4 cells (Chinese hamster lung fibroblasts); enzyme-enriched microsomal fraction of the lysate
T1 sequence (P19099 25-503): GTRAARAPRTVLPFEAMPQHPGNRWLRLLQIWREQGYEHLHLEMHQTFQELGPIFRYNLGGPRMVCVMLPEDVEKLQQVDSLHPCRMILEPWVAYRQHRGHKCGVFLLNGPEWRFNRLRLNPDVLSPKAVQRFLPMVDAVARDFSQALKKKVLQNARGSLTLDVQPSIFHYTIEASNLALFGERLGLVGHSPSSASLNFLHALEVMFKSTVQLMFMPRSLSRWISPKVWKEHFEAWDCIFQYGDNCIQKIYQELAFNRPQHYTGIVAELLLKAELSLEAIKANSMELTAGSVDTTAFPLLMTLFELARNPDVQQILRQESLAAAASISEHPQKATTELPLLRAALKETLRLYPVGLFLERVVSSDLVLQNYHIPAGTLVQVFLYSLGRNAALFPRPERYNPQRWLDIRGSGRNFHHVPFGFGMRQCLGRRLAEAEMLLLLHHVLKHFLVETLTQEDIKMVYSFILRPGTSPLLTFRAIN
Description: (§1) V79-4 cells expressing recombinant andrenodoxin and andrenodoxin reductase with either recombinant human CYP11B2 or CYP11B1 were prepared according to methods previously described (LaSala et al 2009 Anal Bioch 394:56-61). An enzyme enriched microsomal fraction was prepared from cellular lysates and subsequently used as the enzyme source for determining inhibitor IC50s. The substrate Km values were experimentally determined for 11-deoxycorticosterone (CYP11B2 substrate) and 11-deoxycortisol (CYP11B1 substrate). Enzyme assays for inhibitor screening employed CYP11B2 and CYP11B1 enzyme enriched microsomes and were run at the Km of the respective substrates. Products of the enzyme reactions, aldosterone for CYP11B2 or cortisol for CYP11B1, were measured by LC-MS. Assays were run under conditions of less than 20% substrate turnover. Inhibitor IC50s were generated by determining the product formation in the absence or presence of inhibitor at various concentrations. In the absence of the test compound, the product formed (Pt) in each data set was defined as 100% activity. In the absence of enzyme, the product formed (Pb) in each data set was defined as 0% activity. The percent activity in the presence of each inhibitor was calculated according to the following equation: % activity=(P−Pb)/(Pt−Pb), where P=the product formed in the presence of the inhibitor. The IC50 value was defined as the inhibitor concentration causing a 50% decrease in activity relative to the no inhibitor control reaction.

[2] = target: T2, recombinant human CYP11B1 (Homo sapiens, UniProt P15538); test: CYP11B1 enzyme assay with enzyme enriched microsomes, cortisol measured by LC-MS; assay type: biochemical; settings: microsomes from V79-4 cells; 11-deoxycortisol at Km; read-out: hCYP11B1 IC50
T2 construct: made in house; host or cells: V79-4 cells (Chinese hamster lung fibroblasts); enzyme-enriched microsomal fraction of the lysate
T2 sequence (P15538 25-503): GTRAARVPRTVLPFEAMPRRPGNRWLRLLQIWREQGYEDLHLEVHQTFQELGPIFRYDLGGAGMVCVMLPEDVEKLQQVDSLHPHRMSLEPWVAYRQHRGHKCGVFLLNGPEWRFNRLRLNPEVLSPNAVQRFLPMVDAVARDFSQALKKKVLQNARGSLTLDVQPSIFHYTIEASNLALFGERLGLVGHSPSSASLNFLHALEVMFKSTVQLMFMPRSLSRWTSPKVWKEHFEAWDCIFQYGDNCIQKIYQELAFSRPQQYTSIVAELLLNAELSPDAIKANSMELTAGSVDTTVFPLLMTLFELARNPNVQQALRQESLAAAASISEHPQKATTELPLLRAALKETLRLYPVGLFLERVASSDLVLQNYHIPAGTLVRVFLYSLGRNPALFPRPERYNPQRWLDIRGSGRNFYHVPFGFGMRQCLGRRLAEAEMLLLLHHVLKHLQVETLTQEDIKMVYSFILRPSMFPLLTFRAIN
Description: as §1

IC50 [1] [nM] | IC50 [2] [nM] | SMILES
1 to 100 | 1000 to 10000 | Fc1cc2ncn(-c3nc4ccc(Cl)nc4n3C3CC3)c2cc1F [Example 29, 5-chloro-3-cyclopropyl-2-(5,6-difluoro-1H-benzo[d]imidazol-1-yl)-3H-imidazo[4,5-b] pyridine]
1000 to 10000 | > 10000 | CS(=O)(=O)Nc1ccc2ncn(-c3nc4ccc(F)c(F)c4n3C3CC3)c2c1 [Example 33, N-(1′-cyclopropyl-6′,7′-difluoro-1′H-[1,2′-bibenzo[d]imidazol]-6-yl) methanesulfonamide]
1 to 100 | 100 to 1000 | Fc1ccc2nc(-n3cnc4cc(OC(F)(F)F)ccc43)n(C3CC3)c2c1 [Example 27, 1′-cyclopropyl-6′-fluoro-5-(trifluoromethoxy)-1′H-1,2′-bibenzo[d]imidazole]
1000 to 10000 | > 10000 | Fc1cc2nc(-n3cnc4ncccc43)n(C3CC3)c2cc1F [Example 34, 1-(1-cyclopropyl-5,6-difluoro-1H-benzo[d]imidazol-2-yl)-1H-imidazo[4,5-b]pyridine]
1000 to 10000 | > 10000 | CS(=O)(=O)Nc1ccc2ncn(-c3nc4ccc(C#N)cc4n3C3CC3)c2c1 [Example 48, N-(6′-cyano-1′-cyclopropyl-1′H-[1,2′-bibenzo[d]imidazol]-6-yl) methanesulfonamide]
1 to 100 | 1000 to 10000 | Fc1cc2nc(-n3cnc4cc(C(F)F)ncc43)n(C3CC3)c2cc1F [Example 41, 3-(1-cyclopropyl-5,6-difluoro-1H-benzo[d]imidazol-2-yl)-6-(difluoromethyl)-3H-imidazo[4,5-c]pyridine]
1 to 100 | > 10000 | N#Cc1ccc2nc(-n3cnc4ccncc43)n(C3CC3)c2c1 [Example 42, 1-cyclopropyl-2-(3H-imidazo[4,5-c]pyridin-3-yl)-1H-benzo[d]imidazole-6-carbonitrile]
1 to 100 | 1000 to 10000 | N#Cc1ccc2nc(-n3cnc4cc(F)c(F)cc43)n(C3CC3)c2n1 [Example 32, 3-cyclopropyl-2-(5,6-difluoro-1H-benzo[d]imidazol-1-yl)-3H-imidaz[4,5-b]pyridine-5-carbonitrile]
1 to 100 | 100 to 1000 | Fc1cc2nc(-n3cnc4cc(OC(F)F)ccc43)n(C3CC3)c2cc1F [Example 52, 1′-cyclopropyl-5-(difluoromethoxy)-5′,6′-difluoro-1′H-1,2′-bibenzo[d]imidazole]

More lines, now with the values behind:

SMILES | IC50 [1] [nM] | IC50 [2] [nM]
N#Cc1ccc2ncn(-c3nc4cc(F)c(F)cc4n3C3CC3)c2c1 [Example 24, 1′-cyclopropyl-5′,6′-difluoro-1′H-[1,2′-bibenzo[d]imidazole]-6-carbonitrile] | 100 to 1000 | > 10000
Fc1ccc2nc(-n3cnc4ccc(C(F)(F)F)cc43)n(C3CC3)c2c1 [Example 21, 1′-cyclopropyl-6′-fluoro-6-(trifluoromethyl)-1′H-1,2′-bibenzo[d]imidazole] | 1 to 100 | 1000 to 10000
Fc1cc2ncn(-c3nc4ccc(F)c(F)c4n3C3CC3)c2cc1F [Example 15, 1′-cyclopropyl-5,6,6′,7′-tetrafluoro-1′H-1,2′-bibenzo[d]imidazole] | 1 to 100 | 1000 to 10000
Fc1ccc2c(c1)ncn2-c1nc2ccc(F)cc2n1C1CC1 [Example 18, 1′-cyclopropyl-5,6′-difluoro-1′H-1,2′-bibenzo[d]imidazole] | 1 to 100 | 100 to 1000
Fc1ccc2nc(-n3cnc4ccccc43)n(C3CC3)c2c1F [Example 2, 1′-cyclopropyl-6′,7′-difluoro-1′H-1,2′-bibenzo[d]imidazole] | 1 to 100 | 1000 to 10000
Fc1ccc2nc(-n3cnc4cc(C(F)(F)F)ccc43)n(C3CC3)c2c1 [Example 20, 1′-cyclopropyl-6′-fluoro-5-(trifluoromethyl)-1′H-1,2′-bibenzo[d]imidazole] | 1 to 100 | 100 to 1000
N#Cc1ccc2ncn(-c3nc4ccc(F)cc4n3C3CC3)c2c1 [Example 7, 1′-cyclopropyl-6′-fluoro-1′H-[1,2′-bibenzo[d]imidazole]-6-carbonitrile] | 100 to 1000 | > 10000
N#Cc1ccc2c(c1)ncn2-c1nc2cc(F)c(F)cc2n1C1CC1 [Example 23, 1′-cyclopropyl-5′,6′-difluoro-1′H-[1,2′-bibenzo[d]imidazole]-5-carbonitrile] | 1 to 100 | 1000 to 10000
Fc1ccc2nc(-n3cnc4c(F)c(F)ccc43)n(C3CC3)c2c1 [Example 3, 1′-cyclopropyl-4,5,6′-trifluoro-1′H-1,2′-bibenzo[d]imidazole] | 1000 to 10000 | > 10000
Fc1cc2ncn(-c3nc4cc(F)c(F)cc4n3C3CC3)c2cc1F [Example 17, 1′-cyclopropyl-5,5′,6,6′-tetrafluoro-1′H-1,2′-bibenzo[d]imidazole] | 1 to 100 | 1000 to 10000
CCc1ccc2ncn(-c3nc4ccc(F)cc4n3C3CC3)c2c1 [Example 11, 1′-cyclopropyl-6-ethyl-6′-fluoro-1′H-1,2′-bibenzo[d]imidazole] | 1 to 100 | 1000 to 10000
